Here are results for four compounds from patent US20220040252A1, “TREATMENT OF PROSTATE CANCER BY ANDROGEN ABLATION AND IL-8 BLOCKADE” (The Trustees of Columbia University in the City of New York, priority 2019, published 2022).

Read-outs that look alike come from different tables or passages of the source.

Assay [1] deals with IL-8. Briefly: qRT-PCR quantification of IL-8 in LNCaP cells. Format: cell-based, human. To be noted: LNCaP cells in androgen-free media, FIG. 1f. How it is done: Myc-Cap, derived from spontaneous prostate cancer in c-Myc transgenic mice, was a generous gift from Dr. C. Sawyers. To generate MCRedAL, Myc-Cap cells were transfected with pRetroQ-mCherry-C1 (Clontech) using lipofectamine 2000 (Invitrogen) and isolated by FACS sorting based on mCherry expression (Extended Data FIG. 1a). Myc-Cap and MCRedAL cells were cultured in DMEM as previously described. LNCaP, VCaP, E006AA, CWR22Rv1, DU145, and PC3 cell lines were obtained and cultured as recommended by the ATCC. LAPC4 (a gift from Dr. S. Yegnasubramanian) were maintained in RPMI-1640 (Corning) supplemented with 10% fetal bovine serum (FBS; Gemini Bio-Products). Androgen independent LNCaP-abl cells were a gift from Dr. Z. Culig and cultured as described previously^29. LAPC4-CR and VCaP-CR (a gift from S. Yegnasubramanian) were derived by passaging LAPC4 and VCaP cells through castrated animals and further subculturing in RPMI-1640 supplemented with 10% charcoal stripped serum (CSS; Gemini Bio-Products) supplemented with 1×B-27 Neuronal Supplement (Gibco). For experiments when cells were grown in androgen-free conditions, 10% FBS was substituted for 10% CSS in complete media. For migration/chemotaxis assays, prostate cancer cell lines were cultured in complete media containing either 0.5% or 2.5% FBS for human and murine cells, respectively. […]
(Real-time PCR tracks product formation cycle by cycle.)

In assay [2] the test system is IL-8 (CXCL8) promoter. Conditions: LNCaP cells, cited from earlier work.
The subject of assay [3] is IL-8 (CXCL8) promoter. To be noted: LNCaP cells, DHT 100 nM.
Protocol: Chromatin immunoprecipitation was performed. In brief, LNCaP cells were washed with serum-free media and then grown in media containing 10% charcoal stripped FBS for 48 hours. Cells were treated with 100 nM DHT or vehicle for 8 hours. DNA was cross-linked with 1% formaldehyde in PBS for 10 minutes and crosslinking was quenched by addition of 0.125 M glycine. Fixed cells were then lysed in lysis buffer (1% SDS, 5 mM EDTA, 50 mM Tris HCl, pH8.1) and sonicated to a fragment size of 200-600 bp using a Covaris water bath sonicator (Woburn, Mass.). Sheared chromatin was then incubated with primary antibodies (AR [06-680, Millipore], H3K4me3 [ab8580, Abcam], phospho-SerS RNA polymerase 2 [ab5131, Abcam], RNA polymerase 2 [4H8, Cell Signaling Technologies] or control IgG [Cell Signaling Technologies]) overnight at 4° C. Complexes were immobilized on Dynabeads (Thermo Fisher) by incubating for 4 hours at 4° C. Beads were sequentially washed with TSEI (0.1% SDS, 1% Triton X-100, 2 mM EDTA, 20 mM Tris HCl, pH 8.1, 150 mM NaCl), TSEII (0.1% SDS, 1% Triton X-100, 2 mM EDTA, 20 mM Tris HCl, pH 8.1, 500 mM NaCl) and TSEIII (0.25 M LiCl, 1% NP-40, 1% deoxycholate, 1 mM EDTA, 10 mM Tris HCl, pH 8.1). […] Enriched DNA libraries were analyzed using primers specific to IL-8 locus: Forward: 5′ [sequence] […] 3′ (SEQ ID NO: 2) using quantitative (q) RT-PCR. […]
For another assay, the system named is PSA (KLK3) promoter. To be noted: LNCaP cells, DHT 100 nM, FIG. 1h right.
In assay [4] the test system is Cxcl15. Kind of assay: Cxcl15 expression in benign prostate epithelium of mice (RISH, qRT-PCR). To be noted: WT mice treated with ADT followed by testosterone repletion, FIG. 2g. Format: in vivo, mouse. The text has this: Eight-week-old male HOXB13-GFP mice carrying the Hoxb13-rtTA transgene and a Tetracycline operator—Histone 2B-Green Fluorescent Protein (TetO-H2BGFP), which results on GFP expression being restricted to luminal epithelial Hoxb13^+ cells (described previously), were castrated via bilateral orchiectomy. A cycle of prostate regression/regeneration was induced as described previously. Briefly, mice were allowed to regress for six weeks to reach the fully involuted state. Mice were randomized to ADT or ADT+testosterone (T) treatment groups. Testosterone was administered for four weeks for prostate regeneration by subcutaneous pellets; this regimen yields physiological levels of serum testosterone. All mice received 2 mg/ml of Doxycycline (Sigma) in the drinking water to induce GFP expression under the control of the luminal epithelial promoter, HoxB13, one week prior euthanizing them for their analysis.
Manual fluorescent RNAScope was performed on formalin-fixed and zinc-fixed paraffin embedded sections using company protocols. Briefly, sections were cut at 5 μm, air dried overnight, baked at 60° C. for 1 hrs, dewaxed and air-dried before pre-treatments. RNAScope Cxcl15, 3-plex positive control probes (Polr2a, Ppib, Ubc) and 3-plex negative control probes (DapB of Bacillus subtilis strain) from Advanced Cell Diagnostics (ACD) were used in this study. […]

In assay [5] the test system is IL-8. To be noted: men undergoing ADT with testosterone supplementation vs ADT, FIG. 2h; cited from earlier work.
The test system of another assay is Myc-Cap tumors. Briefly: Immune infiltration (PMN-MDSC, TIL, TAM) of Myc-Cap tumors by flow cytometry. Format: in vivo, mouse. Conditions: Myc-Cap allografts after ADT, FIG. 3b. For orientation: A flow cytometer gives signals particle by particle.
Assay [6] has as its system Cxcl15. Kind of assay: Expression analysis of sorted MCRedAL tumor cells pre- and post-ADT. It is filed as in vivo, mouse. How it is done:
Eight-week-old male FVB/NJ and J:NU mice were subcutaneously inoculated in the right flank with either Myc-Cap or MCRedAL (1×10^6 cells/mouse), and LNCaP or PC3 (3×10^6 cells/mouse), respectively. Tumor diameters were measured with electronic calipers every 3 days as indicated and the tumor volume was calculated using the formula: [longest diameter×(shortest diameter)^2]/2. Myc-Cap tumor bearing mice received androgen-deprivation therapy (ADT) 4 weeks after tumor implantation when tumor volume reached ˜500 mm^3, as indicated in figure legends. […]
Tumors collected at different treatment time points were minced, lysed in CelLytic MT (Sigma) containing halt protease and phosphatase inhibitor (Thermo Fisher) in a 1:100 ratio, and incubated on ice for 30 minutes with intermittent vortexing. […] IL-8 and Cxcl15 were analyzed by ELISA kits following the manufacturer's instructions (BD Bioscience and R&D Systems, respectively).
MCRedAL tumor were harvested when their tumor volume reached ˜500 mm^3 (CS group), and 7 days after chemical castration (ADT). […] Resulting CEL files were analyzed in Affymetrix Expression Console (v. 1.4) using the SST-RMA method, and all samples passed the quality control. Log2 probe intensities were extracted from CEL (signal intensity) files and normalized using RMA quantile normalization, then further analyzed using Partek Genomics Suite v6.6. […]

For assay [7], the system named is IL-8. To be noted: high-risk PCa patients treated with ADT (degarelix 240 mg SQ) vs untreated controls, FIG. 2i.
Protocol: Formalin fixed, paraffin embedded (FFPE) human prostate cancer samples were obtained from consented patients treated with ADT (degarelix; 240 mg SQ) in a neo-adjuvant trial (NCT01696877) and matched control radical prostatectomies were obtained from patients treated at the Johns Hopkins Sidney Kimmel Comprehensive Cancer Center (Baltimore, Md.) under IRB-approved clinical protocol J1265. All patients provided written, informed consent. Total RNA was extracted using Trizol (Ambion). cDNA was prepared from total RNA preps using the RNA to cDNA EcoDry Premix (Clontech). Real-time assays were conducted using TaqMan real-time probes (Applied Biosystems). AA CT method was used for relative gene expression. Expression of the target gene was normalized to the reference gene (18S) and the mean expression level of the control group. LCM samples were normalized to 18S, TBP, and GAPDH reference genes. […] Sections were deparaffinized, hydrated and stained with hematoxylin prior to microdissection. Individual cancer cells and cancer cell clusters were microdissected by a trained pathologist using a LMD 7000 laser capture microscope (Leica). RNA was recovered from the microdisseceted material using the RNeasy FFPE kit (Qiagen). Quantitative RT-PCR was performed as described above. For the analysis, a Mann-Whitney U test was performed.

Protocol for Myc-Cap tumors: Eight-week-old male FVB/NJ and J:NU mice were subcutaneously inoculated in the right flank with either Myc-Cap or MCRedAL (1×10^6 cells/mouse), and LNCaP or PC3 (3×10^6 cells/mouse), respectively. Tumor diameters were measured with electronic calipers every 3 days as indicated and the tumor volume was calculated using the formula: [longest diameter×(shortest diameter)^2]/2. Myc-Cap tumor bearing mice received androgen-deprivation therapy (ADT) 4 weeks after tumor implantation when tumor volume reached ˜500 mm^3, as indicated in figure legends. […] Onset of castration-resistance was defined as the time to tumor size increased by 30% (˜650 mm^3) after ADT. Chemical castration by ADT was compared to bilateral orchiectomy as described in FIG. 1a. […]
Single-cell suspensions from prostate tumor and tissues were prepared using the Mouse Tumor Dissociation Kit according to the manufacturer's recommendations (Miltenyi). […] Gates of cytokines were determined by fluorescence minus one (FMO) controls. Staining was visualized by fluorescenceactivated cell sorting (FACS) analysis using a BD FACSCelesta™ (BD Biosciences) and analyzed using FlowJo® (Flowjo LLC). […]
Protocol for PSA (KLK3) promoter: Chromatin immunoprecipitation was performed. In brief, LNCaP cells were washed with serum-free media and then grown in media containing 10% charcoal stripped FBS for 48 hours. Cells were treated with 100 nM DHT or vehicle for 8 hours. […] Fixed cells were then lysed in lysis buffer (1% SDS, 5 mM EDTA, 50 mM Tris HCl, pH8.1) and sonicated to a fragment size of 200-600 bp using a Covaris water bath sonicator (Woburn, Mass.). Sheared chromatin was then incubated with primary antibodies (AR [06-680, Millipore], H3K4me3 [ab8580, Abcam], phospho-SerS RNA polymerase 2 [ab5131, Abcam], RNA polymerase 2 [4H8, Cell Signaling Technologies] or control IgG [Cell Signaling Technologies]) overnight at 4° C. Complexes were immobilized on Dynabeads (Thermo Fisher) by incubating for 4 hours at 4° C. Beads were sequentially washed with TSEI (0.1% SDS, 1% Triton X-100, 2 mM EDTA, 20 mM Tris HCl, pH 8.1, 150 mM NaCl), TSEII (0.1% SDS, 1% Triton X-100, 2 mM EDTA, 20 mM Tris HCl, pH 8.1, 500 mM NaCl) and TSEIII (0.25 M LiCl, 1% NP-40, 1% deoxycholate, 1 mM EDTA, 10 mM Tris HCl, pH 8.1). DNA was eluted with IP Elution buffer (1% SDS, 0.1M NaHCO3, proteinase K) and incubated at 56° C. for 15 minutes. […] Data is shown as relative enrichment normalized to input DNA.

With TNFα, the “IL-8 expression (qRT-PCR)” value in the assay on IL-8 [1] was “upregulated IL-8 expression in a dose-dependent manner”. The “p65 binding at the IL-8 (CXCL8) promoter (ChIP-Seq, GSE83860)” value in the assay on IL-8 (CXCL8) promoter [2] (TNFα 1000 U/ml, FIG. 1g bottom) was “significantly increased p65 binding”.
Consider `C[C@]12CCC(=O)C[C@@H]1CC[C@@H]1[C@@H]2CC[C@]2(C)[C@@H](O)CC[C@@H]12` [DHT, dihydrotestosterone], for which, in the assay with IL-8 [1], the “IL-8 expression (qRT-PCR)” value was “did not affect IL-8 expression”. Also, the “androgen dependent AR binding at the IL-8 promoter (ChIP-qRT-PCR)” value in the assay with IL-8 (CXCL8) promoter [3] (FIG. 1h) is on record as “verified by ChIP-qRT-PCR”. The “binding of pol II, pSer2 pol II and H3K4me3 to the IL-8 locus” value in the assay with IL-8 (CXCL8) promoter [3] (FIG. 1h left) is given as “substantially reduced”. Also, in the assay on PSA (KLK3) promoter, the “pSer2 pol II binding to the promoter of PSA (KLK3)” value is “significantly increased”. In addition, the “AR binding at the IL-8 promoter (in silico ChIP-Seq analysis, GSE83860)” value with IL-8 (CXCL8) promoter [2] (DHT 100 nM, FIG. 1g top) was “found AR binding at the IL-8 promoter”.
As for `C[C@]12CC[C@H]3[C@@H](CCC4=CC(=O)CC[C@@]43C)[C@@H]1CC[C@@H]2O` [testosterone], the “epithelial Cxcl15 expression” value in the assay on Cxcl15 [4] is given as “expression significantly decreased by testosterone repletion”. In addition, in the assay with IL-8 [5], the “IL-8 mRNA expression” value is reported as “significantly reduced IL-8 mRNA expression”.
For the compound degarelix acetate [ADT], in the assay with Myc-Cap tumors, the “T cell influx into tumor” value was “promoted a transient T cell influx” and the “tumor associated macrophage (TAM) populations” value is reported as “without significant changes in tumor associated macrophage (TAM) populations”. Besides, in the assay on Cxcl15 [6] (MCRedAL tumor cells, 7 days after chemical castration vs castration-sensitive, FIG. 1d), the “Cxcl15 transcript (microarray)” value is recorded as “significantly up-regulated post-ADT”. Besides, in the assay with Cxcl15 [6] (post-ADT, data not shown), the “Cxcl15 (qRT-PCR and ELISA)” value is reported as “confirmed the upregulation of Cxcl15 post-ADT at the protein level”. For the same compound, the “IL-8 expression (qRT-PCR)” value with IL-8 [7] is given as “increased IL-8 expression”.
